Experimental data published in publication PMC10296195, “C-Methylated Spermidine Derivatives: Convenient Syntheses and Antizyme-Related Effects” (Biomolecules, 2023).
Read-outs that look alike come from different tables or passages of the source.

Target: T1, mOAZ1 (Mus musculus, UniProt P54369)
T1 construct: gene Oaz1; full-length mouse antizyme 1 (+1 frameshift product); expressed in E. coli Rosetta (DE3) from pET-15b-2c-His-mAZ (XhoI site)
Assay: isothermal titration calorimetry
Assay type: binding
Text: isothermal titration calorimetry on mOAZ1

T1 sequence (P54369 2-227): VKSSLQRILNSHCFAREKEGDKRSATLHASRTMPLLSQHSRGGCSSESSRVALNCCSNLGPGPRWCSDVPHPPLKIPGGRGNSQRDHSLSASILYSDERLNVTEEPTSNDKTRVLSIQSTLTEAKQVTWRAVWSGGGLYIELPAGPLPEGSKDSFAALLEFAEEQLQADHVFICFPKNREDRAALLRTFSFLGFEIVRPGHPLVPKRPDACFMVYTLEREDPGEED

Kd (read-out: Ka ^b, M^-1 (converted)): 370 nM
Kd (read-out: Kd ^c): 370 nM
SMILES: NCCCNCCCCNCCCN [Spm]
